Source: US9302999B2, “Substituted triazoles as herbicides” (E. I. DU PONT DE NEMOURS AND COMPANY, priority 2012, dated 2016)

How the values were obtained:
Type in all cases: in vivo
[1] = test system: arrowleaf sida (Sida rhombifolia); test: Test E pre-/postemergence: arrowleaf sida; settings: scale 0 to 100
Source text: (§1) Seeds of plant species selected from corn (Zea mays), soybean (Glycine max), velvetleaf (Abutilon theophrasti), lambsquarters (Chenopodium album), poinsettia, wild (wild poinsettia, Euphorbia heterophylla), pigweed, palmer (palmer pigweed, Amaranthus palmeri), waterhemp (common waterhemp, Amaranthus rudis), smartweed (ladysthumb smartweed, Polygonum persicaria), surinam grass (Brachiaria decumbens), crabgrass, large (large crabgrass, Digitaria sanguinalis), crabgrass, Brazil (Brazilian crabgrass, Digitaria horizontalis), panicum, fall (fall panicum, Panicum dichotomiflorum), foxtail, giant (giant foxtail, Setaria faberii), foxtail, green (green foxtail, Setaria viridis), goosegrass (Eleusine indica), johnsongrass (Sorghum halepense), ragweed (common ragweed, Ambrosia elation), barnyardgrass (Echinochloa crus-galli), sandbur (southern sandbur, Cenchrus echinatus), arrowleaf sida (Sida rhombifolia), ryegrass, Italian (Italian ryegrass, Lolium multiflorum), dayflower, (VA) (Virginia dayflower, Commelina virginica), field bindweed (Convolvulus arvensis), cocklebur (common cocklebur, Xanthium strumarium), morningglory (Ipomoea coccinea), nightshade (eastern black nightshade, Solanum ptycanthum), kochia (Kochia scoparia), nutsedge, yellow (yellow nutsedge, Cyperus esculentus) and beggarticks (hairy beggarticks, Bidens pilosa) were planted into a silt loam soil and treated preemergence with test chemicals formulated in a non-phytotoxic solvent mixture which included a surfactant. At the same time, plants selected from these crop and weed species were planted in pots containing a growing medium comprising spaghnum peat moss, vermiculite, wetting agent and starter nutrients and treated with postemergence applications of some of the test chemicals formulated in the same manner. Plants ranged in height from 2 to 18 cm for postemergence treatments (1- to 4-leaf stage).
(§2) Treated plants and controls were maintained in a greenhouse for 14 to 21 days, after which time all species were compared to controls and visually evaluated. Plant response ratings, summarized in Table E, are based on a scale of 0 to 100 where 0 is no effect and 100 is complete control. A dash (-) response means no test result.

[2] = test system: pigweed, palmer (palmer pigweed, Amaranthus palmeri); test: Test E pre-/postemergence: pigweed, palmer; settings: scale 0 to 100
Source text: as §1, §2

[3] = test system: crabgrass, Brazil (Brazilian crabgrass, Digitaria horizontalis); test: Test E pre-/postemergence: crabgrass, Brazil; settings: scale 0 to 100
Source text: as §1, §2

[4] = test system: arrowleaf sida (Sida rhombifolia); test: Test F pre-/postemergence: arrowleaf sida; settings: Postemergence, scale 0 to 100
Source text: Seeds of plant species selected from corn (Zea mays), soybean (Glycine max), velvetleaf (Abutilon theophrasti), lambsquarters (Chenopodium album), poinsettia, wild (wild poinsettia, Euphorbia heterophylla), pigweed, palmer (palmer pigweed, Amaranthus palmeri), waterhemp (common waterhemp, Amaranthus rudis), surinam grass (Brachiaria decumbens), crabgrass, Brazil (Brazilian crabgrass, Digitaria horizontalis), panicum, fall (fall panicum Panicum dichotomiflorum), crabgrass, large (large crabgrass, Digitaria sanguinalis), foxtail, giant (giant foxtail, Setaria faberii), foxtail, green (green foxtail Setaria viridis), goosegrass (Eleusine indica), ragweed (common ragweed, Ambrosia elatior), barnyardgrass (Echinochloa crus-galli), sandbur (southern sandbur, Cenchrus echinatus), arrowleaf sida (Sida rhombifolia), ryegrass, Italian (Italian ryegrass, Lolium multiflorum), dayflower, VA (Virginia (VA) dayflower, Commelina virginica), field bindweed (Convolvulus arvensis), cocklebur (common cocklebur, Xanthium strumarium), morningglory (Ipomoea coccinea), nightshade (eastern black nightshade, Solanum ptycanthum), kochia (Kochia scoparia), nutsedge, yellow (yellow nutsedge, Cyperus esculentus), johnsongrass (Sorghum halepense), smartweed (ladysthumb smartweed, Polygonum persicaria), and beggarticks (hairy beggarticks, Bidens pilosa), were planted into a silt loam soil and treated preemergence with test chemicals formulated in a non-phytotoxic solvent mixture which included a surfactant. At the same time, plants selected from these crop and weed species and also pigweed (Amaranthus retroflexus), waterhemp_RES1 (ALS/Triazine resistant common waterhemp, Amaranthus rudis) and waterhemp_RES2 (ALS/HPPD resistant common waterhemp, Amaranthus rudis) were planted in pots containing a planting medium comprising spaghnum peat moss, vermiculite, wetting agent and starter nutrients treated with postemergence applications of some of the test chemicals formulated in the same manner. Plants ranged in height from 2 to 18 cm for postemergence treatments (1- to 4-leaf stage).
as §2

SMILES | Plant response rating: Arrowleaf Sida ([1]; Preemergence, 8 g ai/ha) | Plant response rating: Arrowleaf Sida ([1]; Preemergence, 16 g ai/ha) | Plant response rating: Arrowleaf Sida ([1]; Preemergence, 31 g ai/ha) | Plant response rating: Arrowleaf Sida ([1]; Preemergence, 62 g ai/ha) | Plant response rating: Arrowleaf Sida ([1]; Preemergence, 125 g ai/ha) | Plant response rating: Pigweed, Palmer ([2]; Preemergence, 8 g ai/ha) | Plant response rating: Pigweed, Palmer ([2]; Preemergence, 16 g ai/ha) | Plant response rating: Pigweed, Palmer ([2]; Preemergence, 31 g ai/ha) | Plant response rating: Pigweed, Palmer ([2]; Preemergence, 62 g ai/ha) | Plant response rating: Pigweed, Palmer ([2]; Preemergence, 125 g ai/ha) | Plant response rating: Crabgrass, Brazil ([3]; Preemergence, 8 g ai/ha) | Plant response rating: Crabgrass, Brazil ([3]; Preemergence, 16 g ai/ha) | Plant response rating: Crabgrass, Brazil ([3]; Preemergence, 31 g ai/ha) | Plant response rating: Crabgrass, Brazil ([3]; Preemergence, 62 g ai/ha) | Plant response rating: Crabgrass, Brazil ([3]; Preemergence, 125 g ai/ha) | also measured
Cc1nn(-c2ccc(F)cc2)nc1Cc1ccnc(C(F)(F)F)c1 [Compound 16, 4-[[2-(4-fluorophenyl)-5-methyl-2H-1,2,3-triazol-4-yl]methyl]-2-(trifluoromethyl)pyridine] | 0 | 0 | 0 | 0 | 35 | 95 | 98 | 98 | 98 | 100 | 30 | 70 | 95 | 100 | 100 | –
Cc1nn(-c2ccc(C(F)(F)F)cc2)nc1Cc1ccnc(C(F)(F)F)c1 [Compound 47, 4-[[5-methyl-2-[4-(trifluoromethyl)phenyl]-2H-1,2,3-triazol-4-yl]methyl]-2-(trifluoromethyl)pyridine] | – | 0 | 20 | 40 | 60 | – | 100 | 100 | 100 | 100 | – | 35 | 80 | 100 | 100 | Plant response rating: Arrowleaf Sida ([1]; Postemergence, 250 g ai/ha): 85; Plant response rating: Arrowleaf Sida ([1]; Postemergence, 16 g ai/ha): 50; Plant response rating: Arrowleaf Sida ([1]; Postemergence, 31 g ai/ha): 60; Plant response rating: Arrowleaf Sida ([1]; Postemergence, 62 g ai/ha): 70; Plant response rating: Arrowleaf Sida ([1]; Postemergence, 125 g ai/ha): 80; Plant response rating: Arrowleaf Sida ([1]; Preemergence, 250 g ai/ha): 95; Plant response rating: Pigweed, Palmer ([2]; Postemergence, 250 g ai/ha): 100; Plant response rating: Pigweed, Palmer ([2]; Postemergence, 16 g ai/ha): 70; Plant response rating: Pigweed, Palmer ([2]; Postemergence, 31 g ai/ha): 90; Plant response rating: Pigweed, Palmer ([2]; Postemergence, 62 g ai/ha): 95; Plant response rating: Pigweed, Palmer ([2]; Postemergence, 125 g ai/ha): 100; Plant response rating: Pigweed, Palmer ([2]; Preemergence, 250 g ai/ha): 100; Plant response rating: Crabgrass, Brazil ([3]; Postemergence, 250 g ai/ha): 50; Plant response rating: Crabgrass, Brazil ([3]; Postemergence, 16 g ai/ha): 20; Plant response rating: Crabgrass, Brazil ([3]; Postemergence, 31 g ai/ha): 30; Plant response rating: Crabgrass, Brazil ([3]; Postemergence, 62 g ai/ha): 40; Plant response rating: Crabgrass, Brazil ([3]; Postemergence, 125 g ai/ha): 40; Plant response rating: Crabgrass, Brazil ([3]; Preemergence, 250 g ai/ha): 100
Cc1nn(-c2ccc(F)cc2)nc1Oc1ccnc(C(F)(F)F)c1 [Compound 129, 4-[[2-(4-fluorophenyl)-5-methyl-2H-1,2,3-triazol-4-yl]oxy]-2-(trifluoromethyl)pyridine] | 0 | 0 | 0 | 30 | 30 | 30 | 80 | 100 | 100 | 100 | 10 | 15 | 60 | 95 | 100 | –
Cc1nn(-c2ccc(F)c(F)c2)nc1Oc1ccnc(C(F)(F)F)c1 [Compound 145] | – | – | – | – | – | – | – | – | – | – | – | – | – | – | – | Plant response rating, Arrowleaf Sida ([4]; 8 g ai/ha): 30; Plant response rating, Arrowleaf Sida ([4]; 16 g ai/ha): 40; Plant response rating, Arrowleaf Sida ([4]; 31 g ai/ha): 50; Plant response rating, Arrowleaf Sida ([4]; 62 g ai/ha): 60; Plant response rating, Arrowleaf Sida ([4]; 125 g ai/ha): 70
